Calls of active or inactive are those of the source. No cut-off for these calls is given here.
Legend:
MCF7 [1] = assay: Inhibition of PI3K in human MCF7 cells assessed as downregulation of phosphorylated Akt levels at 2 uM after 24 hrs by Western blot analysis; format: cell-based
SF-295 [2] = assay: Cytotoxicity against human SF295 cells assessed as cell growth at 0.1 uM after 48 hrs by sulforhodamine B assay relative to control; format: functional; conditions: SF-295, 48 h, read-out: Activity
MCF7 [3] = assay: Induction of apoptosis in human MCF7 cells assessed as early apoptotic cells at 2 uM after 24 hrs by Annexin-V FITC/propidium iodide staining-based FACS analysis (reference value: 0.5%); format: functional
SNB-75 [4] = assay: Cytotoxicity against human SNB75 cells assessed as cell growth at 1 uM after 48 hrs by sulforhodamine B assay relative to control; format: functional; conditions: SNB-75, 48 h, read-out: Activity
MCF7 [5] = assay: Downregulation of Akt1 mRNA expression in human MCF7 cells at 2 uM after 48 hrs by qRT-PCR analysis; format: functional, cell-based
NCI-H322M = assay: Cytotoxicity against human NCI-H322M cells assessed as cell growth at 10 uM after 48 hrs by sulforhodamine B assay relative to control; format: functional; conditions: read-out: Activity
SF-295 [6] = assay: Cytotoxicity against human SF295 cells assessed as growth inhibition after 48 hrs by sulforhodamine B assay; format: functional; conditions: SF-295, 48 h
SF-295 [7] = assay: Cytotoxicity against human SF295 cells assessed as cell growth at 10 uM after 48 hrs by sulforhodamine B assay relative to control; format: functional; conditions: SF-295, 48 h, read-out: Activity
SNB-75 [8] = assay: Cytotoxicity against human SNB75 cells assessed as cell growth at 0.01 uM after 48 hrs by sulforhodamine B assay relative to control; format: functional; conditions: SNB-75, 48 h, read-out: Activity
SF-295 [9] = assay: Cytotoxicity against human SF295 cells assessed as cell growth at 1 uM after 48 hrs by sulforhodamine B assay relative to control; format: functional; conditions: SF-295, 48 h, read-out: Activity
OVCAR-8 = assay: Cytotoxicity against human OVCAR8 cells assessed as growth inhibition after 48 hrs by sulforhodamine B assay; format: functional; conditions: OVCAR-8, 48 h
CAKI-1 [10] = assay: Cytotoxicity against human Caki1 cells assessed as cell growth at 100 uM after 48 hrs by sulforhodamine B assay relative to control; format: functional; conditions: CAKI-1, 48 h, read-out: Activity
CAKI-1 [11] = assay: Cytotoxicity against human Caki1 cells assessed as cell growth at 10 uM after 48 hrs by sulforhodamine B assay relative to control; format: functional; conditions: CAKI-1, 48 h, read-out: Activity
SF-295 [12] = assay: Cytotoxicity against human SF295 cells assessed as cell growth at 0.01 uM after 48 hrs by sulforhodamine B assay relative to control; format: functional; conditions: SF-295, 48 h, read-out: Activity
MCF7 [13] = assay: Cell cycle arrest in human MCF7 cells assessed as accumulation at G0/G1 phase at 2 uM after 24 hrs by flow cytometric analysis (reference value: 18.4%); format: functional
CAKI-1 [14] = assay: Cytotoxicity against human Caki1 cells assessed as cell growth at 1 uM after 48 hrs by sulforhodamine B assay relative to control; format: functional; conditions: CAKI-1, 48 h, read-out: Activity
SNB-75 [15] = assay: Cytotoxicity against human SNB75 cells assessed as cell growth at 10 uM after 48 hrs by sulforhodamine B assay relative to control; format: functional; conditions: SNB-75, 48 h, read-out: Activity
CAKI-1 [16] = assay: Cytotoxicity against human Caki1 cells assessed as cell growth at 0.01 uM after 48 hrs by sulforhodamine B assay relative to control; format: functional; conditions: CAKI-1, 48 h, read-out: Activity
SNB-75 [17] = assay: Cytotoxicity against human SNB75 cells assessed as cell growth at 100 uM after 48 hrs by sulforhodamine B assay relative to control; format: functional; conditions: SNB-75, 48 h, read-out: Activity
SNB-75 [18] = assay: Cytotoxicity against human SNB75 cells assessed as growth inhibition after 48 hrs by sulforhodamine B assay; format: functional; conditions: SNB-75, 48 h
SNB-75 [19] = assay: Cytotoxicity against human SNB75 cells assessed as cell growth at 0.1 uM after 48 hrs by sulforhodamine B assay relative to control; format: functional; conditions: SNB-75, 48 h, read-out: Activity
CAKI-1 [20] = assay: Cytotoxicity against human Caki1 cells assessed as growth inhibition after 48 hrs by sulforhodamine B assay; format: functional; conditions: CAKI-1, 48 h
CAKI-1 [21] = assay: Cytotoxicity against human Caki1 cells assessed as cell growth at 0.1 uM after 48 hrs by sulforhodamine B assay relative to control; format: functional; conditions: CAKI-1, 48 h, read-out: Activity
MCF7 [22] = assay: Downregulation of Bcl-2 mRNA expression in human MCF7 cells at 2 uM after 48 hrs by qRT-PCR analysis; format: functional, cell-based
SF-295 [23] = assay: Cytotoxicity against human SF295 cells assessed as cell growth at 100 uM after 48 hrs by sulforhodamine B assay relative to control; format: functional; conditions: SF-295, 48 h, read-out: Activity
LOX IMVI [24] = assay: Cytotoxicity against human LOXIMVI cells assessed as cell growth at 10 uM after 48 hrs by sulforhodamine B assay relative to control; format: functional; conditions: read-out: Activity
LOX IMVI [25] = assay: Cytotoxicity against human LOXIMVI cells assessed as cell growth at 0.1 uM after 48 hrs by sulforhodamine B assay relative to control; format: functional; conditions: read-out: Activity
LOX IMVI [26] = assay: Cytotoxicity against human LOXIMVI cells assessed as cell growth at 0.01 uM after 48 hrs by sulforhodamine B assay relative to control; format: functional; conditions: read-out: Activity
LOX IMVI [27] = assay: Cytotoxicity against human LOXIMVI cells assessed as cell growth at 100 uM after 48 hrs by sulforhodamine B assay relative to control; format: functional; conditions: read-out: Activity
SK-MEL-2 [28] = assay: Cytotoxicity against human SK-MEL-2 cells assessed as cell growth at 1 uM after 48 hrs by sulforhodamine B assay relative to control; format: functional; conditions: SK-MEL-2, 48 h, read-out: Activity
SK-MEL-2 [29] = assay: Cytotoxicity against human SK-MEL-2 cells assessed as cell growth at 10 uM after 48 hrs by sulforhodamine B assay relative to control; format: functional; conditions: SK-MEL-2, 48 h, read-out: Activity
SK-MEL-2 [30] = assay: Cytotoxicity against human SK-MEL-2 cells assessed as cell growth at 0.01 uM after 48 hrs by sulforhodamine B assay relative to control; format: functional; conditions: SK-MEL-2, 48 h, read-out: Activity
SK-MEL-2 [31] = assay: Cytotoxicity against human SK-MEL-2 cells assessed as cell growth at 100 uM after 48 hrs by sulforhodamine B assay relative to control; format: functional; conditions: SK-MEL-2, 48 h, read-out: Activity
LOX IMVI [32] = assay: Cytotoxicity against human LOXIMVI cells assessed as cell growth at 1 uM after 48 hrs by sulforhodamine B assay relative to control; format: functional; conditions: read-out: Activity
SK-MEL-2 [33] = assay: Cytotoxicity against human SK-MEL-2 cells assessed as cell growth at 0.1 uM after 48 hrs by sulforhodamine B assay relative to control; format: functional; conditions: SK-MEL-2, 48 h, read-out: Activity
HOP-92 [34] = assay: Cytotoxicity against human HOP92 cells assessed as cell growth at 100 uM after 48 hrs by sulforhodamine B assay relative to control; format: functional; conditions: HOP-92, 48 h, read-out: Activity
HOP-92 [35] = assay: Cytotoxicity against human HOP92 cells assessed as cell growth at 1 uM after 48 hrs by sulforhodamine B assay relative to control; format: functional; conditions: HOP-92, 48 h, read-out: Activity
HOP-92 [36] = assay: Cytotoxicity against human HOP92 cells assessed as cell growth at 10 uM after 48 hrs by sulforhodamine B assay relative to control; format: functional; conditions: HOP-92, 48 h, read-out: Activity
HOP-92 [37] = assay: Cytotoxicity against human HOP92 cells assessed as growth inhibition after 48 hrs by sulforhodamine B assay; format: functional; conditions: HOP-92, 48 h
HOP-92 [38] = assay: Cytotoxicity against human HOP92 cells assessed as cell growth at 0.1 uM after 48 hrs by sulforhodamine B assay relative to control; format: functional; conditions: HOP-92, 48 h, read-out: Activity
HOP-92 [39] = assay: Cytotoxicity against human HOP92 cells assessed as cell growth at 0.01 uM after 48 hrs by sulforhodamine B assay relative to control; format: functional; conditions: HOP-92, 48 h, read-out: Activity

| Structure (SMILES) | phospho-Akt downregulation (active/inactive) (MCF7 [1]) | Activity (MCF7 [3]) [%] | Activity (MCF7 [5]) | growth at 10 µM (NCI-H322M) [%] | LC50 (OVCAR-8) [µM] | TGI (OVCAR-8) [µM] | growth at 100 µM (CAKI-1 [10]) [%] | growth at 10 µM (CAKI-1 [11]) [%] | Activity (MCF7 [13]) [%] | growth at 1 µM (CAKI-1 [14]) [%] | growth at 0.01 µM (CAKI-1 [16]) [%] | LC50 (CAKI-1 [20]) [µM] | TGI (CAKI-1 [20]) [µM] | growth at 0.1 µM (CAKI-1 [21]) [%] | Activity (MCF7 [22]) | growth at 10 µM (LOX IMVI [24]) [%] | growth at 0.1 µM (LOX IMVI [25]) [%] | growth at 0.01 µM (LOX IMVI [26]) [%] | growth at 100 µM (LOX IMVI [27]) [%] | growth at 1 µM (SK-MEL-2 [28]) [%] | also measured |
| --- | --- | --- | --- | --- | --- | --- | --- | --- | --- | --- | --- | --- | --- | --- | --- | --- | --- | --- | --- | --- | --- |
| COc1ccc(-c2cc(/C=C/C(=O)c3ccc(OC)c(OC)c3)[nH]n2)cc1 | Active | 1.1 | Active | -32 | 57.6 | 10.4 | -70 | -64 | 15.3 | 77 | 98 | 7.96 | 3.52 | 96 | Active | – | – | – | – | – | growth at 0.1 µM (SF-295 [2]): 97%; growth at 1 µM (SNB-75 [4]): 74%; GI50 (SF-295 [6]): 2.08 µM; LC50 (SF-295 [6]): 22 µM; TGI (SF-295 [6]): 5.37 µM; growth at 10 µM (SF-295 [7]): -33%; growth at 0.01 µM (SNB-75 [8]): 88%; growth at 1 µM (SF-295 [9]): 88%; GI50 (OVCAR-8): 2.16 µM; growth at 0.01 µM (SF-295 [12]): 98%; growth at 10 µM (SNB-75 [15]): -53%; growth at 100 µM (SNB-75 [17]): -100%; GI50 (SNB-75 [18]): 1.55 µM; LC50 (concentration killing 50% of cells) (SNB-75 [18]): 9.51 µM; TGI (SNB-75 [18]): 3.84 µM; growth at 0.1 µM (SNB-75 [19]): 79%; GI50 (CAKI-1 [20]): 1.55 µM; growth at 100 µM (SF-295 [23]): -83% |
| COc1ccc(C(=O)/C=C/c2cc(-c3cc(OC)c(OC)c(OC)c3)n[nH]2)cc1OC | Active | 1.4 | Active | -96 | 5.64 | 2.73 | -91 | -33 | 30.8 | 94 | 97 | 19.4 | 5.46 | 99 | Active | -93 | 92 | 92 | -79 | 98 | growth at 10 µM (SK-MEL-2 [29]): -81%; growth at 0.01 µM (SK-MEL-2 [30]): 86%; growth at 100 µM (SK-MEL-2 [31]): -96%; growth at 1 µM (LOX IMVI [32]): 73%; growth at 0.1 µM (SK-MEL-2 [33]): 91% |
| COc1ccc(C(=O)/C=C/c2cc(-c3cc(OC)c(OC)c(OC)c3)n[nH]2)cc1 | Active | – | Active | -60 | > 100 | 8.26 | 1 | -17 | – | 89 | 95 | > 100 | – | 93 | Active | -92 | 93 | 95 | -32 | 97 | growth at 100 µM (HOP-92 [34]): -36%; growth at 1 µM (HOP-92 [35]): 53%; growth at 10 µM (HOP-92 [36]): -56%; TGI (HOP-92 [37]): 3.04 µM; growth at 10 µM (SK-MEL-2 [29]): 21%; growth at 0.1 µM (HOP-92 [38]): 83%; growth at 0.01 µM (HOP-92 [39]): 87%; growth at 0.01 µM (SK-MEL-2 [30]): 92%; growth at 100 µM (SK-MEL-2 [31]): -50%; growth at 1 µM (LOX IMVI [32]): 85%; growth at 0.1 µM (SK-MEL-2 [33]): 90% |

— ChEMBL document CHEMBL4138123, “Design, synthesis and biological evaluation of novel pyrazolochalcones as potential modulators of PI3K/Akt/mTOR pathway and inducers of apoptosis in breast cancer cells” (Eur J Med Chem, 2017)
